Laboratory results from patent publication US11807693B2 (priority 2014, dated 2023).
Read-outs that look alike come from different tables or passages of the source. Starred links: 1 amine or outer side, 2 acyl side, 3 side chain; linkers in the order of their positions; H or OH if unused. Non-standard residues stand in square brackets, D forms with d. Residues, ends and D or L forms follow the SMILES beside them. *: point of attachment. dBip = N[C@H](Cc1ccc(-c2ccccc2)cc1)C(=O)O; Oic = O=C(O)[C@@H]1C[C@@H]2CCCC[C@@H]2N1; Phe(4-Cl) = N[C@@H](Cc1ccc(Cl)cc1)C(=O)O; dPhe(4-Cl) = N[C@H](Cc1ccc(Cl)cc1)C(=O)O; Phe(4-I) = N[C@@H](Cc1ccc(I)cc1)C(=O)O; γGlu = O=C(O)[C@H](CCC(=O)[*:2])N[*:1]; d(β3hF) = N[C@@H](CC(=O)O)Cc1ccccc1; NMeR = CN[C@@H](CCCNC(=N)N)C(=O)O; Palmitoyl = CCCCCCCCCCCCCCCC(=O)*; Tridecanoyl = CCCCCCCCCCCCC(=O)*; hArg = N=C(N)NCCCC[C@H](N)C(=O)O; Tic = O=C(O)[C@@H]1Cc2ccccc2CN1; Cha = N[C@@H](CC1CCCCC1)C(=O)O; NMeL = CN[C@@H](CC(C)C)C(=O)O; αMeL = CC(C)C[C@](C)(N)C(=O)O; β3hP = O=C(O)C[C@@H]1CCCN1; Pip = O=C(O)[C@@H]1CCCCN1; Nle = CCCC[C@H](N)C(=O)O; Dap = NC[C@H](N)C(=O)O; AEEA = NCCOCCOCC(=O)O; Aib = CC(C)(N)C(=O)O; NPrGly = CCCNCC(=O)O; βAla = NCCC(=O)O

Tests used:
rat APJ receptor = target: T1, rat APJ receptor (Rattus norvegicus, UniProt Q9JHG3); experiment: [35S] GTPγS assay, rat APJ receptor; assay type: biochemical
T1 construct: expressed in transfected cells
T1 sequence (Q9JHG3 1-377): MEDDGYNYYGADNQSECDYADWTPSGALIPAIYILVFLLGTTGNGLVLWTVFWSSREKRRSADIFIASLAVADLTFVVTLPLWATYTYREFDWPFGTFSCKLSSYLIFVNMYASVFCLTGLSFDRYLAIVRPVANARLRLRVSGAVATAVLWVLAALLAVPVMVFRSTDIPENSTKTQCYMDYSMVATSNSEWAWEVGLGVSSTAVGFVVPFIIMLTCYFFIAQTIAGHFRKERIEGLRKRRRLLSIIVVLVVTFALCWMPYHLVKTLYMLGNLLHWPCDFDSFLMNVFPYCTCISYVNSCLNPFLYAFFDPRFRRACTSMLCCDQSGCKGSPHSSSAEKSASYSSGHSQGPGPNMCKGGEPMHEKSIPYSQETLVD
Protocol: The membranes were incubated with modified peptides in the assay buffer. […] Bound [^35S] GTPγS was separated from free radiolabel by filtration. The filter bound radioactivity was determined by liquid scintillation counting.

human APJ receptor = target: T2, human APJ receptor (Homo sapiens, UniProt P35414); experiment: [35S] GTPγS assay, human APJ receptor; assay type: biochemical
T2 construct: expressed in transfected cells
T2 sequence (P35414 1-380): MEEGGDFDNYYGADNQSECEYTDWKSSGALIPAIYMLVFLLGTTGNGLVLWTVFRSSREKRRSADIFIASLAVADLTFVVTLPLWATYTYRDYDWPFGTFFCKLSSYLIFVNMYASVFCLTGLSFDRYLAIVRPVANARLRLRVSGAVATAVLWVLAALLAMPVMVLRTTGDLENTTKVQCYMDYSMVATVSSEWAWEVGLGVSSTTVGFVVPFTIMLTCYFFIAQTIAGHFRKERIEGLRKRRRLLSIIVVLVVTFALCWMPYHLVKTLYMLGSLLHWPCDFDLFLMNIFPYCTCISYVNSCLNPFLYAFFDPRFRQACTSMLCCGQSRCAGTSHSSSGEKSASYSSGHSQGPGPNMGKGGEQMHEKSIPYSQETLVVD

[1] = In vitro stability in rat plasma; assay type: in vitro ADME
Summary of the method: (§1)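 Stability was followed for 4 hr at 37° C. after spiking peptides (5 μM final) into rat plasma and tissue homogenates. Methanol quench with internal standard preceded high resolution LC-MS.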

[2] = In vitro stability in rat liver homogenate; assay type: in vitro ADME; settings: tissue homogenate
Summary of the method: as §1

[3] = Table 16, read-out: EC50 Rat APJ Receptor
[4] = rat APJ receptor, read-out: EC50 Rat APJ Receptor

EC50 (rat APJ receptor; [3]) [nM]	EC50 (human APJ receptor; Table 16) [nM]	EC50 (rat APJ receptor; [4]) [nM]	EC50 (human APJ receptor; human APJ receptor) [nM]	remaining at 4 h, 5 μM [1] [%]	remaining at 4 h, 5 μM [2] [%]	Structure (SMILES)
10.4	3.29					CCCCCCCCCCCCC(=O)N[C@@H](CCC(=O)NCCOCCOCC(=O)NCCOCCOCC(=O)N[C@H](CCC(N)=O)C(=O)N[C@@H](CCCCNC(=N)N)C(=O)N1CCC[C@H]1C(=O)N(C)[C@@H](CCCNC(=N)N)C(=O)N[C@@H](CC1CCCCC1)C(=O)N[C@@H](CO)C(=O)N[C@@H](Cc1c[nH]cn1)C(=O)N[C@@H](CCCCN)C(=O)NCC(=O)N1[C@H](C(=O)N[C@@H](CCCC)C(=O)NCCC(=O)N[C@H](Cc2ccc(Cl)cc2)C(=O)O)C[C@@H]2CCCC[C@@H]21)C(=O)O [compound 295] ({Tridecanoyl-γGlu-AEEA-AEEA}-[dQ][hArg]P[NMeR][Cha]SHKG[Oic][Nle][βAla][dPhe(4-Cl)]-OH)
		3.79	0.463			CCCCCCCCCCCCCCCC(=O)N[C@@H](CCC(=O)NCCOCCOCC(=O)NCCOCCOCC(=O)N[C@H](CCC(N)=O)C(=O)N[C@@H](CCCNC(=N)N)C(=O)N1CCC[C@H]1C(=O)N(C)[C@@H](CCCNC(=N)N)C(=O)N[C@@H](CC1CCCCC1)C(=O)N(CCC)CC(=O)N[C@@H](Cc1c[nH]cn1)C(=O)N[C@@H](CCCCN)C(=O)NCC(=O)N1CCCC[C@H]1C(=O)N[C@@H](CCCC)C(=O)NC(C)(C)C(=O)N[C@@H](Cc1ccc(Cl)cc1)C(=O)O)C(=O)O [compound 643] ({Palmitoyl-γGlu-AEEA-AEEA}-[dQ]RP[NMeR][Cha][NPrGly]HKG[Pip][Nle][Aib][Phe(4-Cl)]-OH)
0.341	0.177					CCCCCCCCCCCCC(=O)N[C@@H](CCC(=O)NCCOCCOCC(=O)NCCOCCOCC(=O)N[C@H](CCCNC(=N)N)C(=O)N[C@H](CCC(N)=O)C(=O)N[C@@H](CCCCNC(=N)N)C(=O)N1CCC[C@H]1C(=O)N[C@@H](CCCCNC(=N)N)C(=O)N[C@@H](CC1CCCCC1)C(=O)N[C@@H](CO)C(=O)N[C@@H](Cc1c[nH]cn1)C(=O)N[C@@H](CCCCN)C(=O)NCC(=O)N1[C@H](C(=O)N[C@@H](CCCC)C(=O)N2CCC[C@H]2C(=O)N[C@@H](Cc2ccc(Cl)cc2)C(=O)O)C[C@@H]2CCCC[C@@H]21)C(=O)O [compound 481] ({Tridecanoyl-γGlu-AEEA-AEEA}-[dR][dQ][hArg]P[hArg][Cha]SHKG[Oic][Nle]P[Phe(4-Cl)]-OH)
		2.85	4.92			CC(=O)N[C@@H](CCCCNC(=N)N)C(=O)N[C@H](CCCNC(=N)N)C(=O)N[C@@H](CCC(N)=O)C(=O)N[C@@H](CCC(=O)O)C(=O)N1CCC[C@H]1C(=O)N[C@H](CCCNC(=N)N)C(=O)N(C)[C@@H](CC(C)C)C(=O)N[C@@H](CO)C(=O)N[C@@H](Cc1c[nH]cn1)C(=O)N[C@@H](CCCCN)C(=O)NCC(=O)N1[C@H](C(=O)N[C@@H](Cc2ccc(I)cc2)C(=O)N2CCC[C@H]2C(=O)N[C@H](Cc2ccc(-c3ccccc3)cc2)C(=O)O)C[C@@H]2CCCC[C@@H]21 [compound 77] (Ac-[hArg][dR]QEP[dR][NMeL]SHKG[Oic][Phe(4-I)]P[dBip]-OH)
		17.2	2.75			CCCCCCCCCCCCCCCC(=O)N[C@@H](CCC(=O)NCCOCCOCC(=O)NCCOCCOCC(=O)N[C@H](CCC(N)=O)C(=O)N[C@@H](CCCNC(=N)N)C(=O)N1CCC[C@H]1C(=O)N(C)[C@@H](CCCNC(=N)N)C(=O)N[C@@H](CC1CCCCC1)C(=O)N[C@@H](CO)C(=O)N[C@@H](CN)C(=O)N[C@@H](CCCCN)C(=O)NCC(=O)N1[C@H](C(=O)N[C@@H](CCCC)C(=O)N2CCC[C@H]2CC(=O)N[C@@H](CC(=O)O)Cc2ccccc2)C[C@@H]2CCCC[C@@H]21)C(=O)O [compound 616] ({Palmitoyl-γGlu-AEEA-AEEA}-[dQ]RP[NMeR][Cha]S[Dap]KG[Oic][Nle][β3hP][d(β3hF)]-OH)
		0.486	0.203			CCCCCCCCCCCCCCCC(=O)N[C@@H](CCC(=O)NCCOCCOCC(=O)NCCOCCOCC(=O)N[C@H](CCC(N)=O)C(=O)N[C@@H](CCCNC(=N)N)C(=O)N1CCC[C@H]1C(=O)N(C)[C@@H](CCCNC(=N)N)C(=O)N[C@@](C)(CC(C)C)C(=O)N[C@@H](CO)C(=O)N[C@@H](CN)C(=O)N[C@@H](CCCCN)C(=O)NCC(=O)N1[C@H](C(=O)N[C@@H](CCCC)C(=O)N2CCC[C@H]2CC(=O)N[C@@H](Cc2ccc(Cl)cc2)C(=O)O)C[C@@H]2CCCC[C@@H]21)C(=O)O [compound 630] ({Palmitoyl-γGlu-AEEA-AEEA}-[dQ]RP[NMeR][αMeL]S[Dap]KG[Oic][Nle][β3hP][Phe(4-Cl)]-OH)
35.8	10.3			33	< 1	CCCCCCCCCCCCC(=O)N[C@@H](CCC(=O)NCCOCCOCC(=O)NCCOCCOCC(=O)N[C@@H](CCC(N)=O)C(=O)N[C@@H](CCC(=O)O)C(=O)N1CCC[C@H]1C(=O)N(C)[C@@H](CCCNC(=N)N)C(=O)N[C@@H](CC(C)C)C(=O)N[C@@H](CO)C(=O)N[C@@H](Cc1c[nH]cn1)C(=O)N[C@@H](CCCCN)C(=O)NCC(=O)N1CCC[C@H]1C(=O)N[C@@H](CCCC)C(=O)N1CCC[C@H]1C(=O)N[C@@H](Cc1ccc(Cl)cc1)C(=O)O)C(=O)O [compound 475] ({Tridecanoyl-γGlu-AEEA-AEEA}-QEP[NMeR]LSHKGP[Nle]P[Phe(4-Cl)]-OH)
		10.4	14.7			CCCCCCCCCCCCC(=O)N[C@@H](CCC(=O)NCCOCCOCC(=O)NCCOCCOCC(=O)N[C@@H](CCCCNC(=N)N)C(=O)N[C@H](CCCNC(=N)N)C(=O)N[C@@H](CCC(N)=O)C(=O)N[C@@H](CCCCNC(=N)N)C(=O)N1CCC[C@H]1C(=O)N[C@@H](CCCCN)C(=O)N(C)[C@@H](CC(C)C)C(=O)N[C@@H](CO)C(=O)N[C@@H](Cc1c[nH]cn1)C(=O)N[C@@H](CCCC)C(=O)NCC(=O)N1[C@H](C(=O)N[C@@H](Cc2ccc(I)cc2)C(=O)N2CCC[C@H]2C(=O)N[C@H](Cc2ccc(-c3ccccc3)cc2)C(=O)O)C[C@@H]2CCCC[C@@H]21)C(=O)O [compound 313] ({Tridecanoyl-γGlu-AEEA-AEEA}-[hArg][dR]Q[hArg]PK[NMeL]SH[Nle]G[Oic][Phe(4-I)]P[dBip]-OH)
		36.2	37.6			CCCCCCCCCCCCC(=O)N[C@@H](CCC(=O)NCCOCCOCC(=O)NCCOCCOCC(=O)N[C@@H](CCCCNC(=N)N)C(=O)N[C@H](CCCNC(=N)N)C(=O)N[C@@H](CCC(N)=O)C(=O)N[C@@H](CCCCNC(=N)N)C(=O)N1CCC[C@H]1C(=O)N[C@@H](CCCC)C(=O)N(C)[C@@H](CC(C)C)C(=O)N[C@@H](C)C(=O)N[C@@H](C)C(=O)N[C@@H](CCCCN)C(=O)NCC(=O)N1[C@H](C(=O)N[C@@H](Cc2ccc(I)cc2)C(=O)N2CCC[C@H]2C(=O)N[C@H](Cc2ccc(-c3ccccc3)cc2)C(=O)O)C[C@@H]2CCCC[C@@H]21)C(=O)O [compound 329] ({Tridecanoyl-γGlu-AEEA-AEEA}-[hArg][dR]Q[hArg]P[Nle][NMeL]AAKG[Oic][Phe(4-I)]P[dBip]-OH)
		1.3	0.914			CC(C)C[C@@H](C(=O)N[C@@H](CO)C(=O)N[C@@H](Cc1c[nH]cn1)C(=O)N[C@@H](CCCCN)C(=O)NCC(=O)N1[C@H](C(=O)N[C@@H](Cc2ccc(I)cc2)C(=O)N2CCC[C@H]2C(=O)N[C@H](Cc2ccc(-c3ccccc3)cc2)C(=O)O)C[C@@H]2CCCC[C@@H]21)N(C)C(=O)[C@@H](CCCNC(=N)N)NC(=O)[C@@H]1CCCN1C(=O)[C@H](CCCCNC(=N)N)NC(=O)[C@H](CCC(N)=O)NC(=O)[C@@H](CCCNC(=N)N)NC(=O)[C@H](CCCCNC(=N)N)NC(=O)COCCOCCNC(=O)COCCOCCNC(=O)CC[C@H](NC(=O)CCCCCCCCC(=O)O)C(=O)O [compound 289]
		> 4170	> 4170			CC(=O)N[C@@H](CCCCNC(=N)N)C(=O)N[C@H](CCCNC(=N)N)C(=O)N[C@@H](CCC(N)=O)C(=O)N[C@@H](CCCCNC(=N)N)C(=O)N1CCC[C@H]1C(=O)N[C@H](CCCNC(=N)N)C(=O)N(C)[C@@H](CC(C)C)C(=O)N[C@@H](CO)C(=O)N[C@@H](Cc1c[nH]cn1)C(=O)N[C@@H](CCCCN)C(=O)NCC(=O)N[C@@H](CCC(=O)O)C(=O)N[C@@H](Cc1ccc(I)cc1)C(=O)N1CCC[C@H]1C(=O)N[C@H](Cc1ccc(-c2ccccc2)cc1)C(=O)O [compound 85] (Ac-[hArg][dR]Q[hArg]P[dR][NMeL]SHKGE[Phe(4-I)]P[dBip]-OH)
		2.85	0.463			CCCCCCCCCCCCCCCC(=O)N[C@@H](CCC(=O)NCCOCCOCC(=O)NCCOCCOCC(=O)N[C@H](CCC(N)=O)C(=O)N[C@@H](CCCNC(=N)N)C(=O)N1CCC[C@H]1C(=O)N(C)[C@@H](CCCNC(=N)N)C(=O)N[C@@H](CC1CCCCC1)C(=O)N[C@@H](CO)C(=O)N[C@@H](Cc1c[nH]cn1)C(=O)N[C@@H](CCCCN)C(=O)NCC(=O)N1CCCC[C@H]1C(=O)N[C@@H](CCCC)C(=O)N1CCC[C@H]1C(=O)N1Cc2ccccc2C[C@H]1C(=O)O)C(=O)O [compound 598] ({Palmitoyl-γGlu-AEEA-AEEA}-[dQ]RP[NMeR][Cha]SHKG[Pip][Nle]P[Tic]-OH)
